Laboratory results from patent US8497278B2, “Imidazo[1,2-a]pyridine compounds” (priority 2008, dated 2013).

Key:
[1] = system: central benzodiazepine receptors; assay: Central benzodiazepine receptor binding (test of Speth et al.); settings: 1000 nM of the compound
In short: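 Values are percent inhibition of central benzodiazepine receptor binding at 1000 nM compound (initial single-point screen at 1.0E-09, 1.0E-07 and 1.0E-05 M). Speth et al. binding test; nonspecific binding defined with excess unlabelled ligand and subtracted from total.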

129SVEV mice = assay: Stress-Induced Hyperthermia (SIH) test; type: in vivo; settings: mouse, 60 min before test
Experimental: Stress-Induced Hyperthermia (SIH) protocol: The stress-induced hyperthermia (SIH) test is based on the principle that animal's have a natural hyperthermic response to stress. The test involves taking two measures of rectal temperature in the same animal within a 10 minute interval. The two sequential rectal temperature measurements reveal the animal's basal temperature (T1) and 10 minutes later, an enhanced body temperature (T2) due to the stress of the first rectal temperature. The difference T2-T1 (delta T) is the SIH response. When anxiolytic drugs are administered prior to recording temperature, they reduce the stress response.
Adult male 129SVEV mice (6 weeks old) from Taconic Laboratories (Germantown, N.Y.) were used in these studies. Upon receipt, mice were assigned unique identification numbers (tail marked) and were group housed in OptiMICE ventilated racks. All animals remained group housed during the remainder of the study unless indicated otherwise. All mice were acclimated to the colony room for at least two weeks prior to testing and were subsequently tested at 8 weeks of age. During the period of acclimation, mice were examined on a regular basis, handled, and weighed to assure adequate healtH, D and suitability. Mice were maintained on a 12/12 light/dark cycle with the light on at 7:00 a.m. The room temperature was maintained between 20 and 23° C. with a relative humidity maintained between 30% and 70%. Chow and water were provided ad libitum for the duration of the study. Animals were not disturbed between test days.
On the day prior to testing, the mice were brought to the experimental room one hour before scheduled lights out and singly housed overnight with food and water ad libitum. On the morning of the experiment, mice were orally dosed via gavage with vehicle, CDP (10 mg/kg) or compounds of the present invention (3, 10 or 30 mg/kg) and placed back in the cages. One hour after oral gavage, each animal was removed from the holding cage and held in a supine position and rectal temperature was measured. The rectal probe was attached to a PhysiTemp digital thermometer (Fisher Scientific) which provides temperature readings at 0.1° C. accuracy. The probe remained inside the animal for approximately 5 seconds or until body temperature reached stability. This temperature was recorded as the baseline rectal temperature (T1). The animal was immediately placed back to the holding cage and after a 10-min interval the 2nd rectal temperature (T2) was taken using the same procedure as in measuring T1. Before each insertion, the rectal probe was cleaned with an alcohol pad and lubricated with sterile K-Y jelly.
Chlordiazepoxide (10 mg/kg) was used as the positive control. Compounds of the present invention, vehicle (45% hydroxypropyl beta-cyclodextrin) and chlordiazepoxide were administered orally to all groups (n=10 […] per group) 60 minutes prior to behavioral testing. All data were analyzed using an analysis of variance (ANOVA) followed by Fisher's PLSD post hoc test. An effect was considered significance if p<0.05. Statistical outliers above or below 2 standard deviations from the mean in any of the temperature measures were removed from the final analysis.

[2] = biological target: T1, α3 subtype containing GABA-A receptors (Homo sapiens, UniProt P18507+P34903); assay: Two-electrode voltage clamp electrophysiology in Xenopus oocytes, potentiation of GABA EC20 response, α3; type: cell-based; settings: 100 nM compound, read-out: Percentage of potentiation alpha3
T1 construct: expressed in transfected cells; host or cells: Xenopus laevis oocytes, cRNA injected
T1 sequence (P34903 29-492): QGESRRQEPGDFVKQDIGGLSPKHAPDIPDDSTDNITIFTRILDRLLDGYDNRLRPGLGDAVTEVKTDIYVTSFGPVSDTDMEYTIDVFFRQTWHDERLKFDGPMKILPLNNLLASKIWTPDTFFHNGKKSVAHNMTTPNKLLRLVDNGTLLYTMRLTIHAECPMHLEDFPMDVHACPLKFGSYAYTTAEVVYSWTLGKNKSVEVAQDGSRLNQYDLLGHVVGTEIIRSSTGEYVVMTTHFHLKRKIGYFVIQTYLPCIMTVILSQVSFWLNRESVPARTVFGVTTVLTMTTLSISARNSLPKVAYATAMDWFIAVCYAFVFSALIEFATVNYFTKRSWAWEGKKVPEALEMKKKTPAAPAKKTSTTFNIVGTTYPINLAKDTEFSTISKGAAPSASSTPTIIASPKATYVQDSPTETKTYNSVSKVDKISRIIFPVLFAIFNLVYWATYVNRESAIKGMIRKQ
T1 sequence (P28472 26-473 partner): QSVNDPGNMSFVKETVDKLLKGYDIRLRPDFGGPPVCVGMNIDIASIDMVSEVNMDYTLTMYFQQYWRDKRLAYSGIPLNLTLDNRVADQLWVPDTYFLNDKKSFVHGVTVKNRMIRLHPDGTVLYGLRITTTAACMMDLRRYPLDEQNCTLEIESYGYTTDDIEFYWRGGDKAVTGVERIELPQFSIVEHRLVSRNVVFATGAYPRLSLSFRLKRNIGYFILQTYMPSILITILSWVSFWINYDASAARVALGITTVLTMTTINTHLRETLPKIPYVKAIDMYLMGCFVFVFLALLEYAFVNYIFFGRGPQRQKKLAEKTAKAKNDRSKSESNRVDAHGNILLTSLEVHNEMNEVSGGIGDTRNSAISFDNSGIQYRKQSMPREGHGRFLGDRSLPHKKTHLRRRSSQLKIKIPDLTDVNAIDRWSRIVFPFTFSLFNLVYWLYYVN
T1 sequence (P18507 40-475): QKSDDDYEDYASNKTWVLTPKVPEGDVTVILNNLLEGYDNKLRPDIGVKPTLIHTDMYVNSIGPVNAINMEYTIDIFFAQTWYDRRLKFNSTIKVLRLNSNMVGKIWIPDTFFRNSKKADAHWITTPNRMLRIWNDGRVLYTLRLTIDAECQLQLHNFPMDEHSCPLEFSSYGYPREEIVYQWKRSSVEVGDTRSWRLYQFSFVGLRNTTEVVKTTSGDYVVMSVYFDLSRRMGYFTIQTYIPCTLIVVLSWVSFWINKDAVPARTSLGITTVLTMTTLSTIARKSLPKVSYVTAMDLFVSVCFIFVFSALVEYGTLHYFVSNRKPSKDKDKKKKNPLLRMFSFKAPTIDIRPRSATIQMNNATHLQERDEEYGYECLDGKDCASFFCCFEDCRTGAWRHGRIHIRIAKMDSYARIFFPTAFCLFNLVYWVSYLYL
In short: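 TEVC, oocytes expressing human αx/β3/γ2L GABA-A; Vh −80 mV; ND96 pH 7.5 perfusion. 3 × 20-s GABA EC20 (60 μM) baseline → 1 μM CDP standard → compound 100 nM. Low-current or poorly γ2L-incorporating oocytes excluded.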

[3] = biological target: T2, α5 subtype containing GABA-A receptors (Homo sapiens, UniProt P18507+P31644); assay: Two-electrode voltage clamp electrophysiology in Xenopus oocytes, potentiation of GABA EC20 response, α5; type: cell-based; settings: 100 nM compound, read-out: Percentage of potentiation alpha5
T2 construct: expressed in transfected cells; host or cells: Xenopus laevis oocytes, cRNA injected
T2 sequence (P31644 32-462): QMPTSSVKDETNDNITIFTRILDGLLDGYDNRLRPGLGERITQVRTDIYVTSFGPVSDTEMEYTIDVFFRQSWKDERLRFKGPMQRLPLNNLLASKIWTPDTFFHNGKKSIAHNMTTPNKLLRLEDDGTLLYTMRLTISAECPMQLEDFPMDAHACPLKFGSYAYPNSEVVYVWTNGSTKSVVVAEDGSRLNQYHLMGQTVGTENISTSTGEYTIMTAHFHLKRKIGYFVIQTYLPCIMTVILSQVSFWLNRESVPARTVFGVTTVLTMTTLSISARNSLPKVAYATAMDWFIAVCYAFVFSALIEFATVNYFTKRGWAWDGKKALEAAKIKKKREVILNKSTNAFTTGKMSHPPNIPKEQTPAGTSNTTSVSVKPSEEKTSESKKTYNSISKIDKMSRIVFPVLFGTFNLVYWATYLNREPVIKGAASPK
T2 sequence (P28472 26-473 partner): as the sequence (P28472 26-473 partner) above
T2 sequence (P18507 40-475): as the sequence (P18507 40-475) above
Experimental: Electrophysiology protocol: Oocytes were prepared from adult female Xenopus laevis frogs. cRNA encoding human α1, α2, α3, α5, β3 and γ2L GABAA receptor subunits was injected into the cytoplasm of stage 5 or 6 oocytes using the Robocyte Robot (Multi Channel Systems, Reutlingen, Germany). Two-electrode voltage clamp recordings were made in 96-well plates using the Robocyte Robot. Oocytes were impaled using recording heads with two glass electrodes containing 1.5 M potassium acetate and 0.5 M KCl and held at a membrane potential of −80 mV. Oocytes were continually perfused with a ND96 solution (96 mM NaCl, 2 mM KCl, 0.1 mM CaCl2, and 5 mM HEPES, pH 7.5) using a Gilson 222 XL Liquid Handler and Gilson Minipuls 3 Peristaltic Pump (Gilson Medical Electronics, Middleton, Wis., USA). The protocol consisted of three 20-s applications of GABA that gave a 20% of the maximum response (EC20: 60 μM) to allow for headroom to determine a baseline GABA response. To assess the potentiation, oocytes were first exposed to a single 1 μM chlordiazepoxide (CDP) as a potentiation standard. Oocytes with insufficient expression levels (currents below threshold) or insufficient γ2L subunit incorporation (judged by rapid desensitization upon GABA application, or by insufficient potentiation by CDP) were not included in analysis. Following this control application, a given oocyte was exposed to test compounds at 100 nM concentrations. Only one concentration of one compound was tested per oocyte. […] One skilled in the art will recognize that subtypes contribute to the effects of GABA-A modulators. Such that compounds favoring different subtypes can have different therapeutic effects. The magnitude of modulation, for example, partial modulators can influence the effects in vivo. “++” indicates a greater modulation that “+” so that at any given subtype “++” inducates a greater amount of modulation for that subtype. In some embodiments, modulation favoring alpha 1 relative to alpha2 and/or alpha 3 can have sedative hypnotic effects. In other embodiments, compounds with reduced selectivity of alpha 1 can express anxiolytic effects with less sedation. Compounds with selectivity for alpha 5 can have memory/cognition enhancing effects.

SMILES	% Inhibition at 1000 nM for CBZD [1]	Change in Temperature (T2 − T1) Mean ± S.E.M. (129SVEV mice; 3 mg/kg PO)	Change in Temperature (T2 − T1) Mean ± S.E.M. (129SVEV mice; 10 mg/kg PO)	Change in Temperature (T2 − T1) Mean ± S.E.M. (129SVEV mice; 30 mg/kg PO)	activation at 0.1 µM [2]	activation at 0.1 µM [3]
Clc1ccc(-c2nc3cccnn3c2Cn2cncn2)cc1 [Compound 32, 3-((1H-1,2,4-triazol-1-yl)methyl)-2-(4-chlorophenyl)imidazo[1,2-b]pyridazine]	++ (percentage of inhibition of central BZD site binding is greater than 80% in the presence of 1000 nM of the compound)	0.26 ± 0.04 °C	0.28 ± 0.10 °C	0.37 ± 0.06 °C	–	–
NC(=O)c1ncn(Cc2c(-c3ccc(Cl)cc3)nc3ccccn23)n1 [Compound 72, 1-((2-(4-chlorophenyl)imidazo[1,2-a]pyridin-3-yl)methyl)-1H-1,2,4-triazole-3-carboxamide]	++ (percentage of inhibition of central BZD site binding is greater than 80% in the presence of 1000 nM of the compound)	0.21 ± 0.11 °C	0.32 ± 0.05 °C	0.44 ± 0.10 °C	10 to 50%	-10 to 10%
CNC(=O)c1nccn1Cc1c(-c2ccc(Cl)cc2)nc2ccccn12 [Compound 77, 1-((2-(4-chlorophenyl)H-imidazo[1,2-a]pyridin-3-yl)methyl)-N-methyl-1H-imidazole-2-carboxamide]	++ (percentage of inhibition of central BZD site binding is greater than 80% in the presence of 1000 nM of the compound)	0.37 ± 0.15 °C	0.55 ± 0.11 °C	0.55 ± 0.12 °C	–	–
Cn1ncnc1Cc1c(-c2ccc(F)cc2)nc2ccc(F)cn12 [Compound 200, 6-fluoro-2-(4-fluorophenyl)-3-((1-methyl-1H-1,2,4-triazol-5-yl)methyl)imidazo[1,2-a]pyridine]	++ (percentage of inhibition of central BZD site binding is greater than 80% in the presence of 1000 nM of the compound)	−0.13 ± 0.11 °C	−0.50 ± 0.15 °C	−0.66 ± 0.13 °C	–	–
Clc1ccc(-c2nc3ccccn3c2Cc2ncn[nH]2)cc1 [Compound 211, 3-((1H-1,2,4-triazol-5-yl)methyl)-2-(4-chlorophenyl)imidazo[1,2-a]pyridine]	–	0.37 ± 0.08 °C	0.33 ± 0.09 °C	0.37 ± 0.09 °C	–	–
